Data from patent EP4635949A1 (Jiangsu NHWA Pharmaceutical Co., Ltd, priority 2022, dated 2024).
pIC50: −log10 of the molar value. Where two headings read alike, the source gives them in different places.

Experiments:
[1] = Blood-brain barrier permeability of the test substance in rats; conditions: male, SD, rat, oral, 30 mg/kg; for Kp at 0.25 h: brain/plasma
OX2 receptor = biological target: T1, OX2 receptor (Homo sapiens, UniProt O43614); assay: Orexin target function test (Cisbio HTRF IP-one), CHO-K1-OX2 cells, antagonism of EC80 Orexin 2 receptor agonist; assay type: cell-based
T1 construct: host or cells: CHO-K1
T1 sequence (O43614 1-444): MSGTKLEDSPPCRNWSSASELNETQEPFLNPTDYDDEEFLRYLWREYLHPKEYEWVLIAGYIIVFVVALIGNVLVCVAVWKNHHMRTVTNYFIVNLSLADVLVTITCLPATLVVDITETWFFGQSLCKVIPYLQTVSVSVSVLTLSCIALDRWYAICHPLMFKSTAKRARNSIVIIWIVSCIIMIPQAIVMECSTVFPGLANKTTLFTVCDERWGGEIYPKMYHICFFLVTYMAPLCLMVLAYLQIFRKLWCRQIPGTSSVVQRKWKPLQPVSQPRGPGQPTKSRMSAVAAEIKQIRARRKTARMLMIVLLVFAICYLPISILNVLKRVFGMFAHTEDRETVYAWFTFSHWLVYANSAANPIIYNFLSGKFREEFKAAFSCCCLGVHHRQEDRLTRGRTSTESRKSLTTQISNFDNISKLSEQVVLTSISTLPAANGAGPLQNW
Procedure: (§1) Using Cisbio HTRF IP-one kit to detect the changes in IP-one concentration of orexin receptor (OX1/OX2) signaling pathway by microplate reader, and calculating the IC50 value of the compound to evaluate the antagonistic effect of the compound on OX1 and OX2 receptors.
(§2) The cells were centrifuged at 1000 rpm for 5 minutes and the supernatant was discarded. 3 mL of PBS was added, and gently blown with a pipette to mix. After centrifugation at 1000 rpm for 5 minutes again, the supernatant was discarded. […] Based on the antagonistic effect values of the compound samples at different concentrations, the GraphPad Prism software was used to fit the orexin receptor antagonism curve of the compound samples and calculate the IC50.

OX1 receptor = biological target: T2, OX1 receptor (Homo sapiens, UniProt O43613); assay: Orexin target function test (Cisbio HTRF IP-one), CHO-K1-OX1 cells, antagonism of EC80 Orexin A; assay type: cell-based
T2 construct: host or cells: CHO-K1
T2 sequence (O43613 1-425): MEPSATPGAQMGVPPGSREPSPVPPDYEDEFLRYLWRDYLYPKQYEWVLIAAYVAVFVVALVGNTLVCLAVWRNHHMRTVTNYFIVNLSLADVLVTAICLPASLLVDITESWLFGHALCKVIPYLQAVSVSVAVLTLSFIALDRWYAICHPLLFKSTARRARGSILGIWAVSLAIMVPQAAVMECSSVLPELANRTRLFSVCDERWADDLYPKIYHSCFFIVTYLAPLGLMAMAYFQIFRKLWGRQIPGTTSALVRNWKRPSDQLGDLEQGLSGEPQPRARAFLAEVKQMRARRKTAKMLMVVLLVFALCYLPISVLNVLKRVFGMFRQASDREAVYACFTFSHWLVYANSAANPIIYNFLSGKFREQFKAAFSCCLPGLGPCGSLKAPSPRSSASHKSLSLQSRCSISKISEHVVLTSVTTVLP
Procedure: as §1, §2

in vivo [2] = conditions: male, SD, rat, plasma
in vivo [3] = conditions: male, SD, rat, 30 mg/kg
[4] = male, SD, rat, in vivo, 30 mg/kg
[5] = CHO-K1-OX2 cells, IP-one, read-out: hOX2R IC50
[6] = CHO-K1-OX1 cells, IP-one, read-out: hOXIR IC50

concentration at 0.25 h ([1]; brain) [ng/g] | Kp at 0.25 h [1] | concentration at 0.25 h ([1]; plasma) [µg/mL] | pIC50 (OX2 receptor; [5]) | pIC50 (OX1 receptor; [6]) | AUC(0-t) (in vivo [2]; iv, 1 mg/kg) [µg·h/mL] | Cmax (in vivo [2]; iv, 1 mg/kg) [µg/mL] | AUC(0-t) (in vivo [2]; po, 30 mg/kg) [µg·h/mL] | Cmax (in vivo [2]; po, 30 mg/kg) [µg/mL] | bioavailability (in vivo [2]; po, 30 mg/kg) [%] | SMILES | Selectivity (OX2 receptor) | pIC50 (OX2 receptor) | Kp (in vivo [3]) | Brain [4] [ng/g] | Plasma [4] [ng/mL] | pIC50 (OX1 receptor)
990 | 0.39 | 2.57 | 7.72 | 5.78 | 0.389 | 0.706 | 5.6 | 3.98 | 48 | COc1ccc(C(=O)N2CC3C=C(c4nc(C)cnc4OC)CC3C2)c(-n2nccn2)c1 (centres unmarked) [Compound 41, (4-methoxy-2-(2H-1,2,3-triazol-2-yl)phenyl)(5-(3-methoxy-6-methylpyrazin-2-yl)-3,3a,4,6a-tetrahydrocyclopenta[c]pyrrol-2(1H)-yl)methanone] | 87 |  |  |  |  | 
193 | 0.52 | 0.372 | 7.62 | 5.89 |  |  |  |  |  | COc1cc(C(=O)N2CC3C=C(c4nc(C)cnc4OC)CC3C2)c(-n2nccn2)cn1 (centres unmarked) [Compound 42, (2-methoxy-5-(2H-1,2,3-triazol-2-yl)pyridin-4-yl)(5-(3-methoxy-6-methylpyrazin-2-yl)-3,3a,4,6a-tetrahydrocyclopenta[c]pyrrol-2(1H)-yl)methanone] | 54 |  |  |  |  | 
 |  |  |  |  |  |  |  |  |  | COc1ncc(C)nc1C1=CC2CN(C(=O)c3ccc(F)cc3-n3nccn3)CC2C1 (centres unmarked) [Compound 44, [4-fluoro-2-(2H-1,2,3-triazol-2-yl)phenyl][5-(3-methoxy-6-methylpyrazin-2-yl)-3,3a,4,6a-tetrahydrocyclopenta[c]pyrrol-2(1H)-yl]methanone] | 133 | 7.74 | 0.98 | 231.3 | 235.6 | 5.62

SMILES | concentration at 0.25 h ([1]; brain) [ng/g] | Kp at 0.25 h [1] | concentration at 0.25 h ([1]; plasma) [µg/mL] | pIC50 (OX2 receptor; [5]) | pIC50 (OX1 receptor; [6]) | AUC(0-t) (in vivo [2]; iv, 1 mg/kg) [µg·h/mL] | Cmax (in vivo [2]; iv, 1 mg/kg) [µg/mL] | AUC(0-t) (in vivo [2]; po, 30 mg/kg) [µg·h/mL] | Cmax (in vivo [2]; po, 30 mg/kg) [µg/mL] | bioavailability (in vivo [2]; po, 30 mg/kg) [%] | Selectivity (OX2 receptor) | pIC50 (OX2 receptor) | Kp (in vivo [3]) | Brain [4] [ng/g] | Plasma [4] [ng/mL] | pIC50 (OX1 receptor)
COc1ncc(C)nc1C1=CC2CN(C(=O)c3c(F)cccc3-n3nccn3)CC2C1 (centres unmarked) [Compound 39, (2-fluoro-6-(2H-1,2,3-triazol-2-yl)phenyl)(5-(3-methoxy-6-methylpyrazin-2-yl)-3,3a,4,6a-tetrahydrocyclopenta[c]pyrrol-2(1H)-yl)methanone] | 285 | 0.28 | 1.02 | 7.70 | 5.92 |  |  |  |  |  | 60 |  |  |  |  | 
